Assay results taken from US5652105A, “Substrate for detection of mammalian 5-C-DNA methyltransferase” (Health Research, Inc., priority 1995, dated 1997).

Columns and labels:
Assay type in all cases: biochemical
murine DNA 5-C-MTase [1] = test: Methylation assay: methyl transfer from [methyl-3H]AdoMet to ODNs by DNA methyltransferase from Friend erythroleukemia cell nuclei
Protocol: The phosphoramidite of 5-fluorodeoxycytidine (5FdC) and unmodified 5-methyl deoxycytosine (5MdC) and 5FC-containing ODNs were synthesized and purified as described in Marasco, C. J. et al., J. Org. […] 5MdC phosphoramidite is commercially available. ss ODNs were heated to 90° C. for 10 min and quickly chilled on ice immediately prior to assay. […] For ds ODNs, an equimolar mixture of complementary ODNs was heated to 90° C. for 10 min and slowly cooled to room temperature.
Preparation of Murine DNA 5-C-MTase. The DNA 5-C-MTase used in these studies was the 100,000×g supernatant of a 0.3M NaCl extract of Friend erythroleukemia cell nuclei.
Methylation Assay. Reaction mixtures (50 μl ) in 0.1M imidazole, pH 7.4/20 mM EDTA/0.5 mM dithiothreitol contained 0.5 μg of each ODN indicated, ≈0.6 units of DNA 5-C-MTase (1 unit transfers 1 pmol to A (AS)·A'Mp (M1) per min; see Table 7), and 2.8 μCi (1 Ci=37 GBq) of [methyl-^3 H]AdoMet (AdoMet=S-adenosylmethionine) (8 μM). […] For accuracy, methylation rates <5 pmol/30 min were measured in quadrupled reaction mixtures (200 μl ). After incubation for 30 min at 37° C., ODNs were processed for quantitation of radiolabel as described (20) with 25 μg of salmon sperm DNA added as carrier prior to perchloric acid precipitation.
All assays were performed in duplicate.

[2] = system: bacterial SssI methyltransferase; test: DNA methylase substrate activity with bacterial SssI enzyme preparation
Excerpt: (§1) They are labeled Sense (S), Antisense (AS), Methylated Antisense 1 (M1) and Methylated Antisense 2 (M2). […] This property of M2 provides an approach to accurately monitoring levels of DNA methyltransferase activity in clinically obtained tissue samples that might otherwise be contaminated by bacteria, since bacterial DNA methyltransferase activity would be excluded as a component of this measurement.
RESULTS ARE AVERAGE OF 2 EXPTS. BACTERIAL SSS1 ENZYME PREPARATION. ASSAYE

[3] = system: bacterial DNA methyltransferases; test: Methylation by bacterial DNA methyltransferases that require double stranded DNA
Excerpt: as §1

murine DNA 5-C-MTase [4] = test: Methylation assay: methyl transfer from [methyl-3H]AdoMet to ODNs by DNA methyltransferase from Friend erythroleukemia cell nuclei; conditions: Table 2; enzyme preparation from Friend leukemia cells; 1 μg oligomer; average of 2 expts; background 2691

Question: With “5' ATTGCGNATTNCGGATNCGCGATC 3' (5-methylcytosine at 7, 11, 17, further chemistry not given here) [M2, AS with 5-methylcytosine (N) at 7, 11, 17 (non-CpG sites)]” as the substance, how does the “substrate activity for mammalian DNA methyltransferase (in words)” value (murine DNA 5-C-MTase [1]) read?
Answer: exceptional substrate activity

Question: And the “DNA METHYLASE (FL) SUBSTRATE ACTIVITY, ACTIVITY (CPM)” value (murine DNA 5-C-MTase [1]; Table 4, single and double stranded constructs, average of 2 expts, background 1813)?
Answer: 157027 CPM

Question: And the “RATE (rate of methylation relative to A)” value (murine DNA 5-C-MTase [1]; Table 9, ss ODNs with 5MeC substituted for C at the sites given)?
Answer: 130

Question: What about the “RATE (rate of methylation relative to A)” value (murine DNA 5-C-MTase [1]; Table 10, ss ODNs with 5 mC and 5 FC substitutions) of the same substance?
Answer: 128

Question: And the “substrate activity for bacterial SssI methyltransferase (in words)” value [2]?
Answer: only moderate activity as a substrate

Question: And the “DNA METHYLASE SUBSTRATE ACTIVITY, ACTIVITY (CPM)” value ([2]; Table 3, bacterial SssI enzyme preparation, 0.25 μg oligomer, average of 2 expts, background 1351)?
Answer: 51047 CPM

Question: What about the “methylation by most bacterial DNA methyltransferases (in words)” value [3] of the same substance?
Answer: not methylated

Question: And the “DNA METHYLASE SUBSTRATE ACTIVITY, ACTIVITY (CPM)” value (murine DNA 5-C-MTase [4])?
Answer: 882284 CPM
